Source: article PMC12114633, “α-Glucosidase Inhibition Mechanism and Anti-Hyperglycemic Effects of Flavonoids from Astragali Radix and Their Mixture Effects” (Pharmaceuticals, 2025)
Where “and” joins values, the source holds several entries; their conditions need not be identical. Equal entries are not always repeated.

Columns and labels:
[1] = system: normal C57BL/6J mice; assay: Oral sucrose test, postprandial blood glucose; format: in vivo; conditions: for Blood glucose levels: 30 min after sucrose 4 g/kg, n = 8, in mmol/L (unit assumed); for Rate of blood glucose reduction: vs model group, 30 min after sucrose
From the text: Male C57BL/6J mice of SPF grade, aged 6–8 weeks and weighing 18–22 g, were obtained from the Experimental Animal Science Department of Peking University. The mice were housed in a controlled environment with a 12:12 light/dark cycle and a constant temperature. They were provided with standard pellet feed and given free access to drinking water. To ensure acclimatization, the mice were allowed to adjust to the diet and housing conditions for one week prior to the experiment. All animal experiments were performed in compliance with the relevant laws and institutional guidelines for the care and use of laboratory animals in China. The experiments were approved by the Laboratory Animal Management and Ethics Committee of Peking University (LA2021443). Additionally, the certification number for the laboratory animal personnel is 1120111300011.
The 16 flavonoids were subsequently evaluated for their potential antihyperglycemic effects by using the oral sucrose test, which is commonly used to evaluate intestinal α-glucosidase inhibition in vivo [62]. Normal C57BL/6J mice were randomly divided into model groups and the 16 flavonoid compound groups (n = 8 per group), respectively. The flavonoids at different concentrations were suspended in 0.5% sodium carboxymethyl cellulose (CMC-Na). […] Fifteen minutes after drug administration, the mice were given a sucrose solution (4 g/kg). Blood samples were collected from the tail vein at 30 min after sucrose loading, and blood glucose levels were measured using an Accu-Chek Performa glucometer (Roche Diagnostics, SN: 79508621393, Shanghai, China). The rate of blood glucose reduction was calculated using the following Formula (4):(4) The rate of blood glucose reduction%=the model blood glucose-the sample blood glucose/the model blood glucose×100%

[2] = molecular target: T1, Saccharomyces cerevisiae α-glucosidase (Saccharomyces cerevisiae, UniProt P53341); assay: biochemical; conditions: IC50, α-glucosidase 0.2 U/mL, 5 mM pNPG, PBS pH 6.8, 37 °C
T1 construct: purchased Shanghai Yuanye Biotechnology Co., Shanghai, China Lot No. M23HS178879 (catalogue number not given)
T1 sequence (P53341 whole entry): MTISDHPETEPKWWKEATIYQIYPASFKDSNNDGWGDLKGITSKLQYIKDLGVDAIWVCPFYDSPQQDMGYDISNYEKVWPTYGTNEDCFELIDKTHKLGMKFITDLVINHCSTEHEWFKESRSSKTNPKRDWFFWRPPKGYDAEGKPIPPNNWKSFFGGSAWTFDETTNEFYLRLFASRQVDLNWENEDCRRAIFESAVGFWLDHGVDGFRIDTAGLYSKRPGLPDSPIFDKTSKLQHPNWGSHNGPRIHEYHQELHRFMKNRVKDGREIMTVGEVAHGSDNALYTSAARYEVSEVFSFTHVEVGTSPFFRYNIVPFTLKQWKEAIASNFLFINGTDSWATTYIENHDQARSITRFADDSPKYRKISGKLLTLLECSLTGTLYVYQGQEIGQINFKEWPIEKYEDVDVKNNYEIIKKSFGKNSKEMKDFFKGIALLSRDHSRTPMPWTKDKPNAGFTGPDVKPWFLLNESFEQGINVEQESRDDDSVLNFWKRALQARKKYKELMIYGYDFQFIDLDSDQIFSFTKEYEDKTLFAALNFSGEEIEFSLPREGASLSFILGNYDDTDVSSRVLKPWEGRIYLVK
Procedure: (§1) The α-glucosidase inhibitory effects of flavonoids were evaluated as in a previous report with slight modifications (including changes in the concentrations of the enzyme, substrate, and Na2CO3). Briefly, 50 μL of phosphate-buffered saline (PBS, 0.1 M, pH 6.8), the test compound, and α-glucosidase (0.2 U/mL) were preincubated in a 96-well plate at 37 °C for 10 min. The reaction was then initiated by adding 50 μL of 5 mM pNPG as the substrate. Subsequently, the 96-well plate was incubated for an additional 30 min at 37 °C, then 50 μL of 0.2 M Na2CO3 was added to terminate the reaction. Absorbance was measured at under 405 nm.

[3] = molecular target: T2, α-glucosidase (Saccharomyces cerevisiae, UniProt P53341); assay: Inhibitory kinetic analysis (Lineweaver–Burk plot); format: biochemical; conditions: Lineweaver–Burk plots, pNPG 0.31–20 mM
T2 construct: purchased Shanghai Yuanye Biotechnology Co., Shanghai, China Lot No. M23HS178879 (catalogue number not given)
T2 sequence (P53341 whole entry): as above
Procedure: The type of inhibition was determined by using the kinetics curve and the Lineweaver–Burk plot. […] These compounds were incubated with α-glucosidase at 37 °C for 30 min. After incubation, various concentrations of pNPG (0.31–20 mM) were added, and absorbance was measured at 405 nm. The Lineweaver–Burk plot was obtained by plotting 1/[S] on the x-axis and 1/v on the y-axis, where [S] represents substrate concentration and v represents the reaction velocity.

[4] = molecular target: T2, α-glucosidase; assay: CD spectroscopy, secondary structure of α-glucosidase (BeStSel); conditions: for β-turn: free enzyme 11.7; for β-sheet: free enzyme 28.8; for random coil: free enzyme 45.2; for α-helix: free enzyme 14.4
Procedure: CD spectra in the far-UV region (190–250 nm) were scanned by using a CD spectrometer (JASCO-1.5 Tokyo, Japan). […] The slit width was set to 1 nm, and the baseline was calibrated with PBS (phosphate buffered saline). CD spectra were averaged over three scans under a constant nitrogen flow, with the buffer signal subtracted. The results were analyzed using the BeStSel database (https://bestsel.elte.hu/index.php, accessed on 16 May 2025).

[5] = molecular target: T2, α-glucosidase; assay: Mixture effects of flavonoid combinations on α-glucosidase; format: biochemical
Procedure: as §1
The inhibitory activity of the composition was evaluated using the same method described in Section 3.2. […] The combination index (CI, Formula (3)) was subsequently used to assess the interactions between the compounds [60].(2) Y=Bottom+Top−Bottom/1+10^^((LogIC50−X)×HillSlope)
In Formula (3), (D)j represents the concentration of component j in the mixture needed to achieve an effect of x, while (Dx)j denotes the concentration of component j required to produce the same effect when acting alone. Here, x refers to the inhibition rate produced by the composition, and n indicates the number of individual compounds in the composition.

[6] = molar ratio 10:1, α-glucosidase 4 μM
[7] = molar ratio 40:1, α-glucosidase 4 μM
[8] = molar ratio compound:α-glucosidase 10:1, α-glucosidase 4 μM
[9] = calculated from the dose–response curve
[10] = each compound alone at its IC15 concentration, Com1 = mixture of the four at IC15 (117 μM in total)
[11] = 20 mg/kg oral (acarbose, positive control of each experiment)

SMILES	IC50 [2] [µM]	type of inhibition on α-glucosidase [3]	β-turn [4, 6] [%]	β-sheet [4, 6] [%]	random coil [4, 6] [%]	β-turn [4, 7] [%]	α-helix [4, 7] [%]	β-sheet [4, 7] [%]	random coil [4, 7] [%]	α-helix [4, 8] [%]	Blood glucose levels ([1]; 10 mg/kg oral)	Rate of blood glucose reduction ([1]; 10 mg/kg oral) [%]	Blood glucose levels ([1]; 25 mg/kg oral)	Rate of blood glucose reduction ([1]; 25 mg/kg oral) [%]	Blood glucose levels ([1]; 50 mg/kg oral)	Rate of blood glucose reduction ([1]; 50 mg/kg oral) [%]	IC05 [5, 9] [µM]	Blood glucose levels ([1]; 100 mg/kg oral)	Rate of blood glucose reduction ([1]; 100 mg/kg oral) [%]	other results
O=c1c(O[C@@H]2O[C@H](CO)[C@@H](O)[C@H](O)[C@H]2O)c(-c2ccc(O)cc2)oc2cc(O)cc(O)c12 [C7, astragalin]																				effect on postprandial blood glucose ([1]; 30 min after the sucrose load, compared to the model group, C7 at 10, 50 or 250 mg/kg): no glucose-lowering effect
O=c1c(O[C@@H]2O[C@H](CO)[C@@H](O)[C@H](O)[C@H]2O)c(-c2ccc(O)c(O)c2)oc2cc(O)cc(O)c12 [C10, isoquercitrin]	71.7 ± 7.62	competitive inhibitor	14.2	24.0	49.3	13.1	12.5	16.6	57.8	12.4	12.41 ± 2.07	7.66	12.21 ± 2.08	9.15	10.91 ± 1.78	18.82				IC15 (concentration corresponding to a 15% inhibition rate) [5, 9]: 40 µM; inhibition rate against α-glucosidase [5, 10]: 14.93 ± 4.73%
O=c1c(O)c(-c2ccc(O)c(O)c2)oc2cc(O)cc(O)c12 [C1, quercetin]		mixed-type inhibitors	13.1	23.6	49.1	12.5	11.1	27.9	48.5	14.0	14.46 ± 1.06	0.77			13.41 ± 0.41	7.98	0.82	12.26 ± 1.65	15.87	inhibition rate against α-glucosidase ([5]; each compound alone at its IC05 concentration, Com2 = mixture of the seven at IC05 (381.58 μM in total)): 4.70 ± 1.66%; inhibition rate against α-glucosidase [5, 10]: 17.16 ± 0.75%
O=C1C[C@@H](c2ccc(O)cc2)Oc2cc(O)cc(O)c21 [C5, naringenin]		mixed-type inhibitors	12.8	20.6	53.3	13	15.3	25.3	46.5	13.2			13.23 ± 0.63	14.33			26.47	12.39 ± 1.03	19.76	Blood glucose levels ([1]; 5 mg/kg oral): 14.56 ± 1.96; Rate of blood glucose reduction ([1]; 5 mg/kg oral): 5.67%
O=c1c(O)c(-c2ccc(O)cc2)oc2cc(O)cc(O)c12 [C2, kaempferol]		mixed-type inhibitors	12.5	25.3	48.2	13.3	9.70	23.9	53.1	14.1	12.68 ± 1.47	9.06			12.79 ± 0.81	8.25		11.88 ± 1.62	14.80	
O=c1c(-c2ccc(O)cc2)coc2cc(O)cc(O)c12 [C8, genistein]													13.91 ± 1.00	4.55	13.26 ± 0.72	9.01		12.06 ± 0.82	17.24	
C[C@@H]1O[C@@H](OC[C@H]2O[C@@H](Oc3c(-c4ccc(O)c(O)c4)oc4cc(O)cc(O)c4c3=O)[C@H](O)[C@@H](O)[C@@H]2O)[C@H](O)[C@H](O)[C@H]1O [C6, rutin]	211 ± 11.2		12.1	26.9	45.5	17.6	9.30	14.3	58.8	15.5	12.81 ± 1.23	11.49			11.83 ± 0.71	18.31				Blood glucose levels ([1]; 2 mg/kg oral): 14.68 ± 1.00; Rate of blood glucose reduction ([1]; 2 mg/kg oral): -1.38%
O=C1c2ccc(O)cc2OCC1c1ccc(O)cc1 (stereo not drawn) [C28, dihydrodaidzein]	412 ± 11.4	mixed-type inhibitors	14.4	25.6	50.7	12.9	10.9	20.7	55.5	9.30	12.74 ± 0.75	12.61			11.39 ± 1.48	21.87	98.27			Blood glucose levels ([1]; 2 mg/kg oral): 14.84 ± 0.62; Rate of blood glucose reduction ([1]; 2 mg/kg oral): -1.80%
C[C@H]1O[C@H](O[C@H]2[C@H](O)[C@@H](O)[C@@H](O[C@H]3[C@H](O)[C@@H](O)C(O)O[C@@H]3CO)O[C@@H]2CO)[C@H](O)[C@@H](O)[C@@H]1N[C@H]1C=C(CO)[C@@H](O)[C@H](O)[C@H]1O (stereo partly drawn) [acarbose, reference compound]																				Blood glucose levels [1, 11]: 7.39 ± 0.70 and 7.38 ± 0.95 and 7.90 ± 0.56 and 8.09 ± 0.60 and 7.16 ± 0.52 and 7.98 ± 0.58; Rate of blood glucose reduction [1, 11]: 49.31% and 47.09% and 48.83% and 44.13% and 46.72% and 50.02%
